# According to patent US20200078379A1, “DEFEROXAMINE DERIVATIVES AS MEDICAMENTS” (BIOTECHNOLOGICKY USTAV AV CR, V.V.I., priority 2017, published 2020):
# Legend:
# [1] = test system: MCF7 cells; test: cellular respiration, OXYGRAPH instrument; assay type: cell-based, human
# Excerpt: Application of compound 2 leads to marked inhibition of cellular respiration as evidenced by two independent methods: the Oxygraph instrument (Rohlenova, K., Sachaphibulkij, K., Stursa, J., Bezawork-Geleta, A., Blecha, J., Endaya, B., Werner, L., Cerny, J., Zobalova, R., Goodwin, J., Spacek, T., Alizadeh, P. E., Yan, B., Nguyen, M. N., Vondrusova, M., Sobol, M., Jezek, P., Hozak, P., Truksa, J., Rohlena, J., Dong, L. F., & Neuzil, J. (2017) Selective Disruption of Respiratory Supercomplexes as a New Strategy to Suppress Her2high Breast Cancer. Antioxid. Redox. Signal., 26, 84-103) (Table 6) and Seahorse instrument (Table 7). For Seahorse analysis, 20.000 or 30.000 cells were seeded in 96 well plates and incubated with compound 2 for 1 hour. Afterwards, oxygen consumption rate (OCR) and extracellular acidification rate (ECAR) were measured in three cycles of 3 minutes preceded by 3 minutes of mixing, using a Seahorse XFe96 analyzer (Agilent). Results express the mean values of the three cycles.
# [2] = test system: MCF7 cells; test: cellular proliferation in real time, Xcelligence technology; assay type: cell-based
# Protocol: The ability of compound 2 to affect the proliferation and cell death induction in real time was monitored by the Xcelligence technology that detects changes in electrical impedance related to the cell number. In brief, special 16-well e-plates containing gold electrodes were filled with medium, blank values were recorded, and then 5.000 cells per well were seeded in the plate and let to attach for 2 hours, followed by the addition of compounds. The electrical impedance was then monitored over time in real-time every 15 minutes. In this case a line is drawn that reflects the cell number over time. […] We have seen a clear inhibition of proliferation with compound 2 at 1 μM, complete block of proliferation at 2 μM concentration, while the cytotoxic effect is seen at 5 μM (Table 9).
# [3] = test system: BT549 cells; test: AnnexinV/PI cell death assay; assay type: cell-based; details: 48 hrs
# Protocol: (§1) To confirm such findings by an independent method, cell death-inducing potency (cytotoxic efficacy) of DFO and compound 2 have been tested via annexin V/PI staining commonly used as a measure of apoptotic/necrotic cell death. Briefly, cells were seeded in 12-well plate at 100,000 per well, incubated with the selected compounds for 48 hours, then floating cells were spun, adherent cells trypsinized and spun as well followed by the staining with AnnexinV-FITC and PI probes. Cells were then washed with PBS and measured via Fluorescence Activated Sorter.
# [4] = test system: BT474 cells; test: AnnexinV/PI cell death assay; assay type: cell-based; details: 48 hrs
# Protocol: as §1
# [5] = test system: AsPC-1 cells; test: crystal violet assay, cellular viability; assay type: cell-based; details: Homo sapiens, ASPC1, AsPC-1, 48 hours
# [6] = test system: SK-OV-3 cells; test: crystal violet assay, cellular viability; assay type: cell-based; details: Homo sapiens, SK-OV-3, 48 hours
# [7] = test system: human mammary gland cancer cell line MDA-MB-231; test: dose-effect relationship of drugs and mixtures, crystal violet assay, Median-Effect / Combination index; assay type: cell-based; details: MDA-MB-231, crystal violet, 48 hours
# Protocol: (§2) The potentiation of cytotoxic effect of compound 2 in combination with several cytostatics was evaluated. The dose-effect relationship of individual drugs and mixtures of compound 2 with paclitaxel, cis Pt (cis-platin), doxorubicin and fluorouracil was determined on human mammary gland cancer cell line MDA-MB-231 and pancreatic cell line BxPC3 by means of crystal violet assay. The linearized Median-Effect Plot of dose response line provided both parameters (IC50; trend line m(slope) value) of Median-Effect Equation for individual and combination treatment [ref: Theoretical basis, experimental design, and computerized simulation of synergism and antagonism in drug combination studies; Ting-Chao Chou: Pharmacol Rev. 58(3), 2006, 621-81; Erratum in Pharmacol Rev. 2007; 59(1), 124]:
# (§3) Potentiation of combination effect of compound 2 was expressed for concentrations IC50, IC75, IC90, IC95 by calculation of Combination index (CI) applying Combination Index Theorem for mutually exclusive drugs. Overall CI was expressed by means of weighted average of IC50, IC75, IC90, IC95 [ref: Quantitative analysis of dose-effect relationships: the combined effects of multiple drugs or enzyme inhibitors; Ting-Chao Chou, Paul Talalay: Advances in Enzyme Regulation, Volume 22, 1984, Pages 27-55]: […]
# [8] = test system: pancreatic cell line BxPC3; test: as above; assay type: cell-based
# Protocol: as §2, §3
# [9] = test system: MCF7 cells; test: AnnexinV/PI cell death assay; assay type: cell-based, human; details: for mean percentage of dead cells (AnnexinV/PI): 48 hrs
# Protocol: Briefly, cells were seeded in 12-well plate at 100,000 per well, incubated with the selected compounds for 48 hours, then floating cells were spun, adherent cells trypsinized and spun as well followed by the staining with AnnexinV-FITC and PI probes. Cells were then washed with PBS and measured via Fluorescence Activated Sorter.
# [10] = test system: PaTu 8902 cells; test: crystal violet assay, cellular viability; assay type: cell-based; details: PaTu 8902, 48 hours
# [11] = test system: human triple negative breast cancer cells line MDA-MB-231; test: tumor growth in vivo, MDA-MB-231 model; parameters: species or system NOD-SCID gamma mice; details: for Relative tumor size: MDA-MB-231, 8 mg/kg i.p. twice per week
# Protocol: In order to define the effect of compound 2 on tumor growth and progression in vivo, we tested its effect on the model of human triple negative breast cancer cells line MDA-MB-231, NOD-SCID gamma mice being the immunodeficient host. Mice were injected with 1 million of cells s.c. on the right flank. After appearance of tumors (15-60 mm^3) mice were randomized into three separate group, one receiving corn oil (control) and two compound 2 in a dose of 1 mg/kg or 8 mg/kg. Tumor progression was then monitored by ultrasound imaging Vevo770 and mice received the treatment twice per week, i.p. in approximately 100 ul of corn oil.
compound,measurement,setting,value
"CC(=O)N(O)CCCCCNC(=O)CCC(=O)N(O)CCCCCNC(=O)CCC(=O)N(O)CCCCCN(CCCCCCCCCC[P+](c1ccccc1)(c1ccccc1)c1ccccc1)CCCCCCCCCC[P+](c1ccccc1)(c1ccccc1)c1ccccc1.[Cl-].[Cl-] [Compound 2, Triphenyl(3,14,25-trihydroxy-2,10,13,21,24-pentaoxo-31-(10-(triphenylphosphonio)decyl)-3,9,14,20,25,31-hexaazahentetracontan-41-yl)phosphonium chloride]",mean O2 flow per cells,"[1]; MCF7, 5 μM",15.9 pmol/s/mL
same,mean O2 flow per cells,"[1]; MCF7, 5 μM (5 h)",9.8 pmol/s/mL
same,mean O2 flow per cells,"[1]; MCF7, 25 μM",7.1 pmol/s/mL
same,slope of the line (relative number of cells in relation to time),"[2]; MCF7, 0-15 h, 1 μM",0.32
same,slope of the line (relative number of cells in relation to time),"[2]; MCF7, 0-15 h, 2 μM",0.40
same,slope of the line (relative number of cells in relation to time),"[2]; MCF7, 0-15 h, 5 μM",0.31
same,slope of the line (relative number of cells in relation to time),"[2]; MCF7, 0-36 h, 1 μM",0.35
same,slope of the line (relative number of cells in relation to time),"[2]; MCF7, 0-36 h, 2 μM",−0.01
same,slope of the line (relative number of cells in relation to time),"[2]; MCF7, 0-36 h, 5 μM",−0.47
same,concentration at which the cytotoxic effect is seen,"[2]; Xcelligence, MCF7",5 µM
same,concentration with clear inhibition of proliferation,"[2]; Xcelligence, MCF7",1 µM
same,concentration with complete block of proliferation,"[2]; Xcelligence, MCF7",2 µM
same,mean percentage of dead cells (AnnexinV/PI),"[3]; BT549, 5 μM",31.8%
same,mean percentage of dead cells (AnnexinV/PI),"[3]; BT549, 10 μM",52.3%
same,mean percentage of dead cells (AnnexinV/PI),"[3]; BT549, 20 μM",80.4%
same,mean percentage of dead cells (AnnexinV/PI),"[4]; BT474, 5 μM",18.6%
same,mean percentage of dead cells (AnnexinV/PI),"[4]; BT474, 10 μM",39.9%
same,mean percentage of dead cells (AnnexinV/PI),"[4]; BT474, 20 μM",92.5%
same,IC50,[5],2.6 µM
same,IC50,[6],5.1 µM
same,IC50,"[7]; Homo sapiens, Chou-Talalay method, read-out: Median-Effect Plot parameter IC50",5.89 µM
same,Median-Effect Plot parameter m (slope),[7],1.2778
same,Median-Effect Plot parameter m (slope),[8]; 48 hours,1.57
same,IC50,"[8]; Homo sapiens, BXPC-3, 48 h, read-out: Median-Effect Plot parameter IC50",4.5 µM
same,mean percentage of dead cells (AnnexinV/PI),"[9]; MCF7, 5 μM",35.6%
same,mean percentage of dead cells (AnnexinV/PI),"[9]; MCF7, 10 μM",43.7%
same,mean percentage of dead cells (AnnexinV/PI),"[9]; MCF7, 20 μM",64.0%
same,percentage of death cells by annexinV/PI staining,"[9]; MCF7, ratio Ga:compound 2 0:1, 10 μM compound 2 alone",35.3 (0.5)
same,IC50,[10],5.5 µM
same,"effect on relative tumor growth, in words","[11]; MDA-MB-231, 8 mg/kg",significantly reduces relative tumor growth
same,Relative tumor size,[11]; Day 0,1.0
same,Relative tumor size,[11]; Day 4,1.3
same,Relative tumor size,[11]; Day 7,1.8
same,Relative tumor size,[11]; Day 11,2.6
same,Relative tumor size,[11]; Day 14,3.5
same,Relative tumor size,[11]; Day 18,5.3
same,Relative tumor size,[11]; Day 21,7.9
